Results on 4 compounds are retold here after the kinase profiling compilation of Christmann-Franck et al. (2016).

Common to all, as to test: KINOMEscan competition binding
Holding throughout (settings): compound 10.0 µM

Assay [1] relates to LRRK2 (human), Q5S007 [G2019S].
The target in another assay is CSNK1A1 (human) (UniProt P48729).
For the next assay, the system named is CPK1 (P.falciparum).
The target of another assay is STK39 (human) (UniProt Q9UEW8).
A further assay deals with NEK3 (human) (UniProt P51956).
A further assay addresses MAK (human) (UniProt P20794).
The target in a further assay is CDKL3 (human) (UniProt Q8IVW4).
The target of another assay is DCLK2 (human) (UniProt Q8N568).
A further assay has as its target MARK2 (human) (UniProt Q7KZI7).
The target of a further assay is PAK3 (human) (UniProt O75914).
The next assay concerns the target MAP3K6 (human) (UniProt O95382).
Assay [2] concerns PIK3CA (human), P42336 [E542K].
In assay [3] the test system is ABL1 (human), P00519 [F317L].
Assay [4] deals with ABL1 (human), P00519 [H396P].
The next assay deals with BRAF (human) (UniProt P15056).
Assay [5] has as its system BRAF (human), P15056 [V600E].

Chain of MAP3K6 (human) (O95382 whole entry, looked up): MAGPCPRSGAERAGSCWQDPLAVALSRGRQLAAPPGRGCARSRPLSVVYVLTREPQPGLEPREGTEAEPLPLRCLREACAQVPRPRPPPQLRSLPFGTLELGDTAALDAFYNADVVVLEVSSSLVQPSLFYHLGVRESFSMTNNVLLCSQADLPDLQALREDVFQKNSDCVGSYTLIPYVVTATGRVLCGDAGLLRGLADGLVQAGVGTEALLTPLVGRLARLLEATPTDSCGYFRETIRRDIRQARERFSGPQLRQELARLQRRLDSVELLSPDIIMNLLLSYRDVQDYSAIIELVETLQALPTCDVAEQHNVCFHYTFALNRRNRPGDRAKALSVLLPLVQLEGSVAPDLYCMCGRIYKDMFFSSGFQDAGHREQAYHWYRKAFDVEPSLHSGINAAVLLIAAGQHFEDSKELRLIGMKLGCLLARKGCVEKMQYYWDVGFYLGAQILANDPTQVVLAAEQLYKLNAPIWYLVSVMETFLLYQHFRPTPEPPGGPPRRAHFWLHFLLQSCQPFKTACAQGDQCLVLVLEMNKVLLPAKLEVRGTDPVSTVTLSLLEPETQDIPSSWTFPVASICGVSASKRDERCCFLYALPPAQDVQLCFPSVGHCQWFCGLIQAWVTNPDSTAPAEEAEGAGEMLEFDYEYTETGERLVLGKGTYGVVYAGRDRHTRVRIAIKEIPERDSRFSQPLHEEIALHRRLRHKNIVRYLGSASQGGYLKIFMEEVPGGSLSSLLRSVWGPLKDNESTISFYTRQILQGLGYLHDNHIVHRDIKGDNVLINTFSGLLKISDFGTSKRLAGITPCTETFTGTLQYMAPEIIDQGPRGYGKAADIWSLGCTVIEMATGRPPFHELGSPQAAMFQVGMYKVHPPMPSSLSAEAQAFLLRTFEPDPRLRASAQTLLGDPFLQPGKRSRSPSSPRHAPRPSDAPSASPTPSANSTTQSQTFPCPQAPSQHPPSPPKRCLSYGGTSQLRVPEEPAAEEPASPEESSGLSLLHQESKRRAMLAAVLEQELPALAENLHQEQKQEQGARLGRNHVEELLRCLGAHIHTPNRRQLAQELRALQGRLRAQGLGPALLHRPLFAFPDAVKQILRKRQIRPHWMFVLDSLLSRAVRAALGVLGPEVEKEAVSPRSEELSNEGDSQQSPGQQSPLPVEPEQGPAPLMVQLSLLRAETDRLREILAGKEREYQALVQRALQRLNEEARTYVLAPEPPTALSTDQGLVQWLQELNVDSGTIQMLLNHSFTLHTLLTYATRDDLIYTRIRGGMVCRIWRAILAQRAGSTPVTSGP
Chain of MAK (human) (P20794 whole entry, looked up): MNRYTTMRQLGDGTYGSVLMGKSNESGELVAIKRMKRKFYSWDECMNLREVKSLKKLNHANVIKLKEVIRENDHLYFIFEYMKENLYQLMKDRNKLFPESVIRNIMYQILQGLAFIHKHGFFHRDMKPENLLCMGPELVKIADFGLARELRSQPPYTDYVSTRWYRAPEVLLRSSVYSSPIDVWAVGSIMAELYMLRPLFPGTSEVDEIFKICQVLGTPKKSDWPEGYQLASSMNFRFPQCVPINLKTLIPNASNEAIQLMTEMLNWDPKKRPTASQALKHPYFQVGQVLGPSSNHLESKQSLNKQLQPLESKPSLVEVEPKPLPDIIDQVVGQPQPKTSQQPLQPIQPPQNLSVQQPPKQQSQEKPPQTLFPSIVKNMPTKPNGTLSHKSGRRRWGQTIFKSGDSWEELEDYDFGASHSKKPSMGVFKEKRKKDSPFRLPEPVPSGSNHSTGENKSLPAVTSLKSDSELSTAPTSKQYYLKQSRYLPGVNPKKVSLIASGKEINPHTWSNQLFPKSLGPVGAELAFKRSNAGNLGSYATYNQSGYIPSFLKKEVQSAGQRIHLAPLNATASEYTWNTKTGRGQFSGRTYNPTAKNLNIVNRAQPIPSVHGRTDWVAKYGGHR
Chain of PIK3CA (human), P42336 [E542K] (P42336 whole entry E542K, looked up): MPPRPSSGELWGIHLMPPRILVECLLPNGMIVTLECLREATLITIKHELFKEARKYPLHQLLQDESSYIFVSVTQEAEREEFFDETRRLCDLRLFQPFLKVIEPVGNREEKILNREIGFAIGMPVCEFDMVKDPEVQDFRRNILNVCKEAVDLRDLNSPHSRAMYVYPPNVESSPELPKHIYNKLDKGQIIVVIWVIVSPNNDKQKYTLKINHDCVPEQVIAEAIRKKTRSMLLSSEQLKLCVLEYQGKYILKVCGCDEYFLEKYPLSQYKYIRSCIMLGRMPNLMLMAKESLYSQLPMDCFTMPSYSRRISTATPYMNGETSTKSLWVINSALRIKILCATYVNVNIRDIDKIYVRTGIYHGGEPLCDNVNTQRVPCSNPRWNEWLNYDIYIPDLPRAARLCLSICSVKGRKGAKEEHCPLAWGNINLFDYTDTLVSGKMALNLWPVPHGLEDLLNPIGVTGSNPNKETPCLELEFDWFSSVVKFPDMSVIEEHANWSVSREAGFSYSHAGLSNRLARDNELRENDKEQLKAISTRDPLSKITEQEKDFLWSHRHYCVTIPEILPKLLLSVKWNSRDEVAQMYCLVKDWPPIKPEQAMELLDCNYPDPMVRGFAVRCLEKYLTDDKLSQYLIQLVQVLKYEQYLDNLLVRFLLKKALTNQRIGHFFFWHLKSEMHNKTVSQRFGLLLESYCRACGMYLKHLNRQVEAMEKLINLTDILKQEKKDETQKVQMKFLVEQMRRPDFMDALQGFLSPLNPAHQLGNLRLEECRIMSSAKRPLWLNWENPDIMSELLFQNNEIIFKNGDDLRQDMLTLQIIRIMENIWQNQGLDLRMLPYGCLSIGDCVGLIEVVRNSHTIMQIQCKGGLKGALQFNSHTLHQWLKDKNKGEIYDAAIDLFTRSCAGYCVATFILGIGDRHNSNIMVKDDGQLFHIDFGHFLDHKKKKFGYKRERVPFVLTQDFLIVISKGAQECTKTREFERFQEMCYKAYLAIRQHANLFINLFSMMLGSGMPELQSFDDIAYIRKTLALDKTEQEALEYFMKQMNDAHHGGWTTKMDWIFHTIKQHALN
Chain of PAK3 (human) (O75914 whole entry, looked up): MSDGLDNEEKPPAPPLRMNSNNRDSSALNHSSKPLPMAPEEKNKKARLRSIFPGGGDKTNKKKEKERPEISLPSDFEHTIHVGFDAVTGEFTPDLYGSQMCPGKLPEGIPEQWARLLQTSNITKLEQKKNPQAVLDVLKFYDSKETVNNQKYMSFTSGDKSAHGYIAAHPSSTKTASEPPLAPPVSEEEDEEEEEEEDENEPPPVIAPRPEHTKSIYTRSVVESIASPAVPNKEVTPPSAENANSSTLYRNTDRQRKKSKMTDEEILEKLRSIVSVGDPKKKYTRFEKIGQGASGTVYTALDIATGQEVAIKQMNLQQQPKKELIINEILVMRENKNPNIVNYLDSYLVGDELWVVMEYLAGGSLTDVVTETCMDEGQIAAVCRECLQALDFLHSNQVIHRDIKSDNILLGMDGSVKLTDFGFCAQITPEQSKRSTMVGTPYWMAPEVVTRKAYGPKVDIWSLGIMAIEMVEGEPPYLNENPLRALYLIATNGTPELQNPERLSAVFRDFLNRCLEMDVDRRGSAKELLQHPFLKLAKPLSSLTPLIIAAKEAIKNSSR
Chain of MARK2 (human) (Q7KZI7 whole entry, looked up): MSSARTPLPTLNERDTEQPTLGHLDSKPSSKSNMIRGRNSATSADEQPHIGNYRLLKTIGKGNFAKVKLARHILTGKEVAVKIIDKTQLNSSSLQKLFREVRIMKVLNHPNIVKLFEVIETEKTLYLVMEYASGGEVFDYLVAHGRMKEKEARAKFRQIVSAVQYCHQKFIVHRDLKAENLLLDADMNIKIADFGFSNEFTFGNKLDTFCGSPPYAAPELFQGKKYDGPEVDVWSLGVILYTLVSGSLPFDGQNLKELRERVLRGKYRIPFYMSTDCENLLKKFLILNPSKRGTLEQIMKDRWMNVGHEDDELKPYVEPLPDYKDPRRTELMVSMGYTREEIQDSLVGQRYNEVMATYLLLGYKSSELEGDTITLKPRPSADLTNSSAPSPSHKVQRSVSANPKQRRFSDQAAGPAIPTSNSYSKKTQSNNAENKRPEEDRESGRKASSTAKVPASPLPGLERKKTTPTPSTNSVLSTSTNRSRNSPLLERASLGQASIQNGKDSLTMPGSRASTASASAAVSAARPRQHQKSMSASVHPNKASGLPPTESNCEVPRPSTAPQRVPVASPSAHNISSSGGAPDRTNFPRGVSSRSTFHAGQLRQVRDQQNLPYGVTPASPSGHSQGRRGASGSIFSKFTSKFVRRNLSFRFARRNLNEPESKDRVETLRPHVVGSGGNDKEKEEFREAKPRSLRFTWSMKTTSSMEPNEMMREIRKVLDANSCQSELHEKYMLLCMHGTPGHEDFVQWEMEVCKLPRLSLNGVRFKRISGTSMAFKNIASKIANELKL
Chain of CSNK1A1 (human) (P48729 whole entry, looked up): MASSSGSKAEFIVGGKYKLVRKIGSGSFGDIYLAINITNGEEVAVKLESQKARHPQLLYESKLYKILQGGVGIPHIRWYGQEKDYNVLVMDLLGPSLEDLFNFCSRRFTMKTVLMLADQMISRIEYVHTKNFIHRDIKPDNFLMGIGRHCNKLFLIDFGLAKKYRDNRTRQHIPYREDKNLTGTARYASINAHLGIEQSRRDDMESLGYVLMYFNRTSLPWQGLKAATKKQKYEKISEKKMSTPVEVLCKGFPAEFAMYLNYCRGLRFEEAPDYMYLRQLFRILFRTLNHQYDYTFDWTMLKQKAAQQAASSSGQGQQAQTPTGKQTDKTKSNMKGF

Consider `CCN1CCN(Cc2ccc(NC(=O)c3ccc(C)c(/C=C/c4cnc(Nc5cc(N6CCNCC6)nc(C)n5)cn4)c3)cc2C(F)(F)F)CC1`, for which the kinase still bound, per cent of control in assay [1] was 75%; on CSNK1A1 (human), 14%; in the assay on CPK1 (P.falciparum), 0.2%; at STK39 (human), 100%; at NEK3 (human), 59%; on MAK (human), 49%. Also, the kinase still bound, per cent of control at CDKL3 (human) is 0.55%; at DCLK2 (human), 100%; at MARK2 (human), 100%; on PAK3 (human), 14%; at MAP3K6 (human) it was 93%; in assay [2], 94%.

For `CCN1CCN(Cc2ccc(NC(=O)c3ccc(C)c(Oc4ccnc5[nH]ccc45)c3)cc2C(F)(F)F)CC1`, the kinase still bound, per cent of control in assay [3] was determined as 0.1%; in assay [4] it was 0.7%.

Consider `COc1cc(N2CCC(N3CCN(C)CC3)CC2)ccc1Nc1ncc(Cl)c(Nc2ccccc2S(=O)(=O)C(C)C)n1`, for which the kinase still bound, per cent of control on BRAF (human) came out at 40%; in assay [3] it was 0.7%; in assay [5], 40%.

Consider `CCOc1cc(N2CCC(N3CCCCC3)CC2)ccc1Nc1nc(Nc2ccccc2S(=O)(=O)C(C)C)c2cn[nH]c2n1`, for which the kinase still bound, per cent of control worked out at 4.8% in [1]; 55% on CSNK1A1 (human); 44% in the assay with CPK1 (P.falciparum); 37% at STK39 (human); 76% at NEK3 (human); 100% on MAK (human). For the same compound, the kinase still bound, per cent of control on CDKL3 (human) worked out at 100%; on DCLK2 (human), 19%; at MARK2 (human) it was 86%; at PAK3 (human), 59%; on MAP3K6 (human), 99%; in assay [2], 100%.
